What was measured:
dog [1] = settings: Subchronic oral toxicity in nonrodent, beagle, Capsule, dose end: 13 week, group: systemic
rat [2] = settings: Combined chronic toxicity/carcinogenicity, fischer, Oral, Feed, dose end: 104 week, group: systemic
rat [3] = settings: Multigenerational reproductive toxicity study, other, Oral, Feed, dose end: 2 generation
mouse [4] = settings: Carcinogenicity; b6c3f1; Oral; Feed; dose end: 104 week; group: systemic; systemic / in life observation / body weight / body weight gain + systemic / in life observation / food consumption / food consumption + …
rat [5] = settings: Subchronic oral toxicity in rodents, fischer, Feed, dose end: 90 day, group: systemic, systemic / pathology microscopic / stomach / hyperplasia
rabbit [6] = settings: Prenatal developmental toxicity study; new zealand white; Oral; Gavage/Intubation; dose end: 19 GD; group: maternal; reproductive / reproductive performance / aborted / aborted + systemic / in life observation / body weight / body weight gain + systemic / …
dog [7] = settings: Chronic toxicity; beagle; Oral; Capsule; dose end: 52 week; group: systemic; systemic / pathology microscopic / kidney / dilatation + systemic / pathology microscopic / kidney / fibrosis + systemic / urinalysis / …
mouse [8] = settings: Carcinogenicity, other, Oral, Feed, dose end: 24 month, group: systemic
rat [9] = settings: Combined chronic toxicity/carcinogenicity, fischer, Oral, Feed, dose end: 24 month, group: systemic
rat [10] = settings: Subchronic oral toxicity in rodents, wistar, Feed, dose end: 90 day, group: systemic, systemic / pathology microscopic / stomach / hyperplasia + systemic / pathology microscopic / stomach / infiltration cellular + systemic / …
mouse [11] = settings: Subchronic oral toxicity in rodents, b6c3f1, Feed, dose end: 90 day, group: systemic, systemic / in life observation / body weight / body weight + systemic / in life observation / body weight / body weight gain + systemic / in…
dog [12] = settings: Subchronic oral toxicity in nonrodent, beagle, Feed, dose end: 64 day, group: systemic, systemic / clinical chemistry / cytochrome p450, nos / cytochrome p450, nos + systemic / clinical chemistry / o-demethylase / o-demethylase…
rabbit [13] = settings: Prenatal developmental toxicity study, himalayan, Oral, Gavage/Intubation, dose end: 28 GD
rat [14] = settings: Multigenerational reproductive toxicity study, wistar, Oral, Feed, dose end: 2 generation
rat [15] = settings: Multigenerational reproductive toxicity study, other, Oral, Feed, dose end: 2 generation; remark: listed apart in the source
rat [16] = settings: Combined chronic toxicity/carcinogenicity, sprague dawley, Oral, Feed, dose end: 104 week
mouse [17] = settings: Carcinogenicity, cd1, Oral, Feed, dose end: 105 week, group: systemic
[18] = systemic / clinical chemistry / potassium / potassium + systemic / in life observation / clinical signs / abnormal feces + systemic / …
[19] = group: offspring, systemic / in life observation / body weight / offspring (pup) weight
[20] = group: parental, systemic / pathology gross / stomach / thickened + systemic / pathology microscopic / stomach / acanthosis + systemic / pathology …
[21] = systemic / hematology / leukocyte (wbc) count differential / leukocyte (wbc) + systemic / hematology / mean corpuscular hemoglobin (mch) / …
[22] = systemic / hematology / mean corpuscular hemoglobin concentration (mchc) / mean corpuscular hemoglobin concentration (mchc)
[23] = systemic / organ weight / kidney / relative to body weight
[24] = group: developmental, developmental / developmental malformation / bone / absent + developmental / developmental malformation / bone / enlarged fontanel + …
[25] = group: maternal, reproductive / reproductive performance / aborted / aborted + systemic / in life observation / body weight / body weight + systemic / in …
[26] = group: parental, systemic / pathology microscopic / stomach / vacuolization
[27] = group: reproductive, reproductive / offspring survival early / birth index / live birth index
[28] = group: cholinesterase, cholinesterase / cholinesterase / cholinesterase / cholinesterase (che)
[29] = group: offspring, systemic / in life observation / body weight / offspring (pup) weight + developmental / offspring survival late / lactation index / …
[30] = group: parental, systemic / in life observation / body weight / body weight gain
[31] = group: reproductive, reproductive / offspring survival early / litter size / litter size
[32] = group: cholinesterase, cholinesterase / cholinesterase / cholinesterase / erythrocyte cholinesterase (che) + cholinesterase / cholinesterase / cholinesterase / …
[33] = group: cholinesterase, cholinesterase / cholinesterase / cholinesterase / plasma cholinesterase (che)
[34] = group: systemic, systemic / clinical chemistry / urea nitrogen / urea nitrogen
[35] = group: systemic, systemic / clinical chemistry / urea nitrogen / urea nitrogen + systemic / organ weight / brain / relative to body weight + systemic / organ…
[36] = systemic / in life observation / body weight / body weight gain

CCC([O-])=C1C(=O)CC(C(=O)[O-])CC1=O.[Ca+2] (stereo unspecified) [Prohexadione-calcium]
NEL (dog [1]; [18]): 80 mg/kg/day | NOAEL (dog [1]; [18]): 80 mg/kg/day | LOAEL (dog [1]; systemic / clinical chemistry / potassium / potassium + systemic / pathology microscopic / kidney / dilatation): 400 mg/kg/day | LEL (dog [1]; systemic / clinical chemistry / potassium / potassium + systemic / pathology microscopic / kidney / dilatation + systemic / in life …): 400 mg/kg/day | LOAEL (rat [2]; systemic / hematology / leukocyte (wbc) count differential / leukocyte (wbc)): 469 mg/kg/day | NOAEL (rat [2]; systemic / hematology / leukocyte (wbc) count differential / leukocyte (wbc) + systemic / in life observation / body weight / body weight + …): 93.9 mg/kg/day | LEL (rat [2]; systemic / pathology microscopic / thyroid gland / dilatation): 114 mg/kg/day | NEL (rat [2]; systemic / pathology microscopic / thyroid gland / dilatation + systemic / in life observation / body weight / body weight + systemic / in …): 22.3 mg/kg/day | LEL (rat [3]; [19]): 385 mg/kg/day | LOAEL (rat [3]; [19]): 3850 mg/kg/day | NEL (rat [3]; [19]): 35.5 mg/kg/day | NOAEL (rat [3]; [19]): 385 mg/kg/day | LOAEL (rat [3]; group: parental, systemic / in life observation / mortality / mortality): 385 mg/kg/day | NOAEL (rat [3]; group: parental, systemic / in life observation / mortality / mortality + systemic / in life observation / body weight / body weight + systemic / pathology …): 35.5 mg/kg/day | LEL (rat [3]; [20]): 35.5 mg/kg/day | NEL (rat [3]; [20]): < 35.5 mg/kg/day | LEL (mouse [4]): 2850 mg/kg/day | LOAEL (mouse [4]): 2850 mg/kg/day | NEL (mouse [4]): 279 mg/kg/day | NOAEL (mouse [4]): 279 mg/kg/day | LEL (rat [5]): 734 mg/kg/day | LOAEL (rat [5]): 734 mg/kg/day | NEL (rat [5]): 73.1 mg/kg/day | NOAEL (rat [5]): 73.1 mg/kg/day | LEL (rabbit [6]): 200 mg/kg/day | LOAEL (rabbit [6]): 200 mg/kg/day | NEL (rabbit [6]): 40 mg/kg/day | NOAEL (rabbit [6]): 40 mg/kg/day | LEL (dog [7]): 200 mg/kg/day | LOAEL (dog [7]): 200 mg/kg/day | NEL (dog [7]): 20 mg/kg/day | NOAEL (dog [7]): 20 mg/kg/day

CCCOc1nn(C(=O)[N-]S(=O)(=O)c2ccccc2C(=O)OC)c(=O)n1C.[Na+] [Propoxycarbazone-sodium]
LOAEL (mouse [8]; [21]): > 1880 mg/kg/day | NOAEL (mouse [8]; [21]): ≥ 1880 mg/kg/day | LEL (mouse [8]; [22]): 74.6 mg/kg/day | NEL (mouse [8]; [22]): < 74.6 mg/kg/day | LOAEL (rat [9]; systemic / in life observation / body weight / body weight gain + systemic / urinalysis / ph / ph): 459 mg/kg/day | NOAEL (rat [9]; systemic / in life observation / body weight / body weight gain + systemic / urinalysis / ph / ph + systemic / pathology gross / full gross …): 43 mg/kg/day | LEL (rat [9]; [23]): 43 mg/kg/day | NEL (rat [9]; [23]): < 43 mg/kg/day | LEL (rat [10]): 1510 mg/kg/day | LOAEL (rat [10]): 1510 mg/kg/day | NEL (rat [10]): 286 mg/kg/day | NOAEL (rat [10]): 286 mg/kg/day | LEL (mouse [11]): 860 mg/kg/day | LOAEL (mouse [11]): 860 mg/kg/day | NEL (mouse [11]): 205 mg/kg/day | NOAEL (mouse [11]): 205 mg/kg/day | LEL (dog [12]): 1180 mg/kg/day | LOAEL (dog [12]): > 1180 mg/kg/day | NEL (dog [12]): 286 mg/kg/day | NOAEL (dog [12]): ≥ 1180 mg/kg/day | LEL (rabbit [13]; [24]): 1000 mg/kg/day | LOAEL (rabbit [13]; [24]): > 1000 mg/kg/day | NEL (rabbit [13]; [24]): 500 mg/kg/day | NOAEL (rabbit [13]; [24]): ≥ 1000 mg/kg/day | LEL (rabbit [13]; [25]): 500 mg/kg/day | LOAEL (rabbit [13]; [25]): 500 mg/kg/day | NEL (rabbit [13]; [25]): 100 mg/kg/day | NOAEL (rabbit [13]; [25]): 100 mg/kg/day | LEL (rat [14]; [26]): 323 mg/kg/day | LOAEL (rat [14]; [26]): 323 mg/kg/day | NEL (rat [14]; [26]): 79.6 mg/kg/day | NOAEL (rat [14]; [26]): 79.6 mg/kg/day | LEL (rat [14]; [27]): 1310 mg/kg/day | LOAEL (rat [14]; [27]): 1310 mg/kg/day | NEL (rat [14]; [27]): 323 mg/kg/day | NOAEL (rat [14]; [27]): 323 mg/kg/day

COP(=O)(OC)SCn1c(=O)oc2cc(Cl)cnc21 [Azamethiphos]
LEL (rat [15]; [28]): 10 mg/kg/day | LOAEL (rat [15]; [28]): 10 mg/kg/day | NEL (rat [15]; [28]): 2 mg/kg/day | NOAEL (rat [15]; [28]): 2 mg/kg/day | LOAEL (rat [15]; [19]): 50 mg/kg/day | LEL (rat [15]; [29]): 50 mg/kg/day | NEL (rat [15]; [29]): 10 mg/kg/day | NOAEL (rat [15]; [29]): 10 mg/kg/day | LEL (rat [15]; [30]): 10 mg/kg/day | LOAEL (rat [15]; [30]): 10 mg/kg/day | NEL (rat [15]; [30]): 2 mg/kg/day | NOAEL (rat [15]; [30]): 2 mg/kg/day | LEL (rat [15]; [31]): 50 mg/kg/day | LOAEL (rat [15]; [31]): 50 mg/kg/day | NEL (rat [15]; [31]): 10 mg/kg/day | NOAEL (rat [15]; [31]): 10 mg/kg/day | LOAEL (rat [16]; [32]): 8.1 mg/kg/day | NOAEL (rat [16]; [32]): 0.8 mg/kg/day | LEL (rat [16]; [33]): 1.1 mg/kg/day | NEL (rat [16]; [33]): < 1.1 mg/kg/day | LEL (rat [16]; [34]): 0.8 mg/kg/day | NEL (rat [16]; [34]): < 0.8 mg/kg/day | LOAEL (rat [16]; [35]): > 62.6 mg/kg/day | NOAEL (rat [16]; [35]): ≥ 62.6 mg/kg/day | LEL (mouse [17]; [36]): 6.2 mg/kg/day | NEL (mouse [17]; [36]): < 6.2 mg/kg/day | LOAEL (mouse [17]; systemic / pathology microscopic / intestine small / hyperplasia): 60.2 mg/kg/day | NOAEL (mouse [17]; systemic / pathology microscopic / intestine small / hyperplasia + systemic / hematology / hematocrit (hct) / hematocrit (hct) + systemic / …): 6.2 mg/kg/day
